Measurements from patent US6914045B2, “Glycopeptide antibiotics” (Wyeth Holdings Corporation, priority 2001, dated 2005).
In brackets after ≈: the same amount, converted by molar mass. Where two headings read alike, the source gives them in different places.

Tests used:
[1] = anatomic pathology (histopathology of heart and kidney) in mice; assay type: in vivo; settings: CD-1 mice, 20 mg/kg intravenously daily for 9 days, necropsy day 10, microscopic histopathology
Procedure: Samples of tissues from necropsied mice were formalin-fixed, paraffin-embedded, sectioned, stained with hematoxylin and eosin, and examined microscopically. Histopathologic findings were recorded. These findings were subjectively graded on a scale corresponding to slight, mild, moderate, marked and severe as compared to untreated controls.

[2] = system: Staphylococcus sp.; assay: in vitro antibacterial evaluation, MIC by broth dilution; assay type: cell-based; settings: broth dilution, 18 hours at 35° C.
In short: (§1)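 MIC, the lowest antibiotic concentration preventing growth, was read across 64-0.06 μg/mL with 5×10^5 CFU/mL inoculum. Method followed NCCLS M7-A2 broth dilution using Mueller-Hinton II; Gram-positive strains covered recent methicillin-, penicillin- and/or vancomycin-resistant clinical isolates.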

[3] = system: Enterococcus sp.; assay: as above; assay type: cell-based; settings: broth dilution, 18 hours at 35° C.
In short: as §1

[4] = system: Escherichia coli; assay: as above; assay type: cell-based; settings: 18 hours at 35° C.
In short: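 Read-out: the lowest concentration at which the test strain fails to grow. Serial dilutions (64-0.06 μg/mL) in Muller-Hinton II […], 5×10^5 CFU/mL inoculum, NCCLS M7-A2 procedure.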

[5] = system: Streptococcus sp.; assay: as above; assay type: cell-based; settings: broth dilution, 18 hours at 35° C.
In short: as §1

[6] = system: Gram-positive bacteria comprised of Staphylococcus sp., Streptococcus sp. and Enterococcus sp.; assay: in vitro antibacterial evaluation, MIC by broth dilution (strain not given); assay type: cell-based
Procedure: Methods for in vitro Antibacterial Evaluation (Table 1)
The minimum inhibitory concentration (MIC), the lowest concentration of the antibiotic which inhibits growth of the test organism, is determined by the broth dilution method using Muller-Hinton II […] (Baltimore Biological Laboratories) following the recommendations of the National Committee for Clinical Laboratory Standards [Methods for dilution antimicrobial susceptibility tests for bacteria that grow aerobically, approved standard M7-A2, National Committee for Clinical Laboratory Standards, Villanova, Pa.].
An inoculum level of 5×10^5 CFU/mL, and a range of antibiotic concentrations (64-0.06 μg/mL) is used. […] The test organisms include a spectrum of Gram-positive bacteria comprised of Staphylococcus sp., Streptococcus sp. and Enterococcus sp. These organisms include recent clinical isolates that are resistant to methicillin, penicillin and/or vancomycin.

[7] = system: Staphylococcus aureus-SMITH (GC 4543); assay: acute lethal infection in mice; assay type: in vivo; settings: Staphylococcus, read-out: median effective dose (ED50), Staphylococcus aureus-SMITH (GC 4543)
In short: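 Mice (female CD-1, 20+/−2 gm) receive bacteria ip in broth or hog gastric mucin, then test agent iv after 30 min. Median effective dose is calculated from 7 day survival pooled across 3 tests.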

In the case of N=C1NCC(C(O)C2NC(=O)[C@H](C(O)C3CNC(=N)N3)NC(=O)C(Cc3ccc(O)cc3)NC(=O)[C@H](Cc3ccccc3)NC(=O)CNC(=O)[C@H](CO)NC2=O)N1 (stereo in doubt) [Example 280a, Cyclo[glycylphenylalanyltyrosyl-3-(2-iminoimidazolidin-4-yl)seryl-3-(2-iminoimidazolidin-4-yl)serylseryl]], the “Anatomical Pathology (Day 10), Heart” value [1] was 0, the “Anatomical Pathology (Day 10), Kidney” value [1] was “++” and the MIC ([2]; Staphylococcus, read-out: MIC Coagulase Negative Staphylococcus (GC 4547)) was 128 µg/mL (≈ 161 µM). It also gave an MIC ([2]; Staphylococcus, read-out: MIC Coagulase Negative Staphylococcus (GC 4548)) greater than 128 µg/mL, an MIC ([2]; Staphylococcus, read-out: MIC Coagulase Negative Staphylococcus (GC 4549)) of 128 µg/mL (≈ 161 µM) and an MIC ([2]; Staphylococcus, read-out: MIC Coagulase Negative Staphylococcus (GC 4551)) greater than 128 µg/mL. It also gave an MIC ([2]; Staphylococcus, read-out: MIC Coagulase Negative Staphylococcus (GC 6257)) of 128 µg/mL (≈ 161 µM), an MIC ([2]; Staphylococcus, read-out: MIC Staphylococcus aureus-SMITH (GC 4543)) greater than 128 µg/mL and an MIC ([2]; read-out: MIC Staphylococcus aureus (ATCC 29213)) greater than 128 µg/mL. For the same compound, the MIC ([2]; read-out: MIC Staphylococcus aureus (GC 1131)) was greater than 128 µg/mL, the MIC ([2]; read-out: MIC Staphylococcus aureus (GC 3051)) was greater than 128 µg/mL and the MIC ([2]; read-out: MIC Staphylococcus aureus (GC 3053)) was greater than 128 µg/mL. For the same compound, the MIC ([2]; read-out: MIC Staphylococcus aureus (GC 4541)) was greater than 128 µg/mL, the MIC ([2]; read-out: MIC Staphylococcus aureus (GC 4542)) was greater than 128 µg/mL and the MIC ([2]; read-out: MIC Staphylococcus aureus (GC 4544)) was greater than 128 µg/mL. The MIC ([2]; read-out: MIC Staphylococcus aureus (GC 4545)) was greater than 128 µg/mL, the MIC ([2]; read-out: MIC Staphylococcus haemolyticus (GC 4546)) was 128 µg/mL (≈ 161 µM) and the “MIC Staphylococcus aureus (ATCC 29213)” value ([2]; strain ATCC 29213) was greater than 128 µg/mL. For the same compound, the “MIC Staphylococcus aureus (GC 1131)” value ([2]; strain GC 1131) was greater than 128 µg/mL, the “MIC Staphylococcus aureus (GC 3051)” value ([2]; strain GC 3051) was greater than 128 µg/mL and the “MIC Staphylococcus aureus (GC 3053)” value ([2]; strain GC 3053) was greater than 128 µg/mL. For the same compound, the “MIC Staphylococcus aureus (GC 4541)” value ([2]; strain GC 4541) was greater than 128 µg/mL, the “MIC Staphylococcus aureus (GC 4542)” value ([2]; strain GC 4542) was greater than 128 µg/mL and the “MIC Staphylococcus aureus (GC 4544)” value ([2]; strain GC 4544) was greater than 128 µg/mL. The “MIC Staphylococcus aureus (GC 4545)” value ([2]; strain GC 4545) was greater than 128 µg/mL, the “MIC Staphylococcus haemolyticus (GC 4546)” value ([2]; strain GC 4546) was 128 µg/mL (≈ 161 µM) and the “MIC Coagulase Negative Staphylococcus (GC 4547)” value ([2]; strain GC 4547) was 128 µg/mL (≈ 161 µM). For the same compound, the “MIC Coagulase Negative Staphylococcus (GC 4548)” value ([2]; strain GC 4548) was greater than 128 µg/mL, the “MIC Coagulase Negative Staphylococcus (GC 4549)” value ([2]; strain GC 4549) was 128 µg/mL (≈ 161 µM) and the “MIC Coagulase Negative Staphylococcus (GC 4551)” value ([2]; strain GC 4551) was greater than 128 µg/mL. For the same compound, the “MIC Coagulase Negative Staphylococcus (GC 6257)” value ([2]; strain GC 6257) was 128 µg/mL (≈ 161 µM), the “MIC Staphylococcus aureus-SMITH (GC 4543)” value ([2]; strain SMITH GC 4543) was greater than 128 µg/mL and the MIC ([3]; Enterococcus avium (GC 4558), read-out: MIC, Enterococcus avium (GC 4558)) was greater than 128 µg/mL. The MIC ([3]; Enterococcus faecalis (ATCC 29212), read-out: MIC, Enterococcus faecalis (ATCC 29212)) was greater than 128 µg/mL, the MIC ([3]; Enterococcus faecalis (GC 4553), read-out: MIC, Enterococcus faecalis (GC 4553)) was greater than 128 µg/mL and the MIC ([3]; Enterococcus faecalis (GC 4554), read-out: MIC, Enterococcus faecalis (GC 4554)) was greater than 128 µg/mL. The MIC ([3]; Enterococcus faecalis (GC 6189), read-out: MIC, Enterococcus faecalis (GC 6189)) was greater than 128 µg/mL, the MIC ([3]; Enterococcus faecium (GC 2243), read-out: MIC, Enterococcus faecium (GC 2243)) was greater than 128 µg/mL and the MIC ([3]; Enterococcus faecium (GC 4556), read-out: MIC, Enterococcus faecium (GC 4556)) was greater than 128 µg/mL. It also gave an MIC ([3]; Enterococcus faecium (GC 4557), read-out: MIC, Enterococcus faecium (GC 4557)) greater than 128 µg/mL, an MIC ([3]; strain ATCC 29212, read-out: MIC Enterococcus faecalis (ATCC 29212)) greater than 128 µg/mL and an MIC ([3]; strain GC 2242, read-out: MIC Enterococcus faecalis (GC 2242)) greater than 128 µg/mL. The MIC ([3]; strain GC 2243, read-out: MIC Enterococcus faecium (GC 2243)) was greater than 128 µg/mL, the MIC ([3]; strain GC 2691, read-out: MIC Enterococcus faecalis (GC 2691)) was greater than 128 µg/mL and the MIC ([3]; strain GC 3059, read-out: MIC Enterococcus faecalis (GC 3059)) was greater than 128 µg/mL. The MIC ([3]; strain GC 4552, read-out: MIC Enterococcus faecalis (GC 4552)) was greater than 128 µg/mL, the MIC ([3]; strain GC 4553, read-out: MIC Enterococcus faecalis (GC 4553)) was greater than 128 µg/mL and the MIC ([3]; strain GC 4554, read-out: MIC Enterococcus faecalis (GC 4554)) was greater than 128 µg/mL. It also gave an MIC ([3]; strain GC 4556, read-out: MIC Enterococcus faecium (GC 4556)) greater than 128 µg/mL, an MIC ([3]; strain GC 4557, read-out: MIC Enterococcus faecium (GC 4557)) greater than 128 µg/mL and an MIC ([3]; strain GC 4558, read-out: MIC Enterococcus avium (GC 4558)) greater than 128 µg/mL. The MIC ([3]; strain GC 6189, read-out: MIC Enterococcus faecalis (GC 6189)) was greater than 128 µg/mL, the MIC ([4]; ATCC25922, Escherichia coli (ATCC 25922), read-out: MIC, Escherichia coli (ATCC 25922)) was 128 µg/mL (≈ 161 µM) and the MIC ([4]; Escherichia coli (GC 4559), read-out: MIC, Escherichia coli (GC 4559)) was 64 µg/mL (≈ 80.5 µM). The MIC ([4]; Escherichia coli (GC 4560), read-out: MIC, Escherichia coli (GC 4560)) was 64 µg/mL (≈ 80.5 µM), the MIC ([5]; strain ATCC 6301, read-out: MIC Streptococcus pneumoniae (ATCC 6301)) was greater than 128 µg/mL and the MIC ([5]; strain GC 1894, read-out: MIC Streptococcus pneumoniae (GC 1894)) was 128 µg/mL (≈ 161 µM). It also gave an MIC ([5]; strain GC 4563, read-out: MIC Streptococcus pyogenes (GC 4563)) greater than 128 µg/mL, an MIC ([5]; strain GC 4564, read-out: MIC Streptococcus agalactiae (GC 4564)) greater than 128 µg/mL and an MIC ([5]; strain GC 4565, read-out: MIC Streptococcus pneumoniae (GC 4565)) greater than 128 µg/mL. For the same compound, the MIC ([6]; Table 2 section r2574-r2600, column 1, 18 hours at 35° C., read-out: MIC, strain of column 1) was greater than 128 µg/mL, the MIC ([6]; Table 2 section r2574-r2600, column 2, 18 hours at 35° C., read-out: MIC, strain of column 2) was 128 µg/mL (≈ 161 µM) and the MIC ([6]; Table 2 section r2574-r2600, column 3, 18 hours at 35° C., read-out: MIC, strain not given) was greater than 128 µg/mL. The MIC ([6]; Table 2 section r2574-r2600, column 5, 18 hours at 35° C., read-out: MIC, strain of column 5) was greater than 128 µg/mL, the MIC ([6]; Table 2 section r2574-r2600, column 7, 18 hours at 35° C., read-out: MIC, strain not given) was greater than 128 µg/mL and the MIC ([6]; Table 2 section r2574-r2600, column 9, 18 hours at 35° C., read-out: MIC, strain of column 9) was greater than 128 µg/mL. It also gave an MIC ([6]; Table 2 section r2574-r2600, column 10, 18 hours at 35° C., read-out: MIC, strain of column 10) greater than 128 µg/mL and an ED50 [7] greater than 8 mg/kg.
